Measured values from patent US4552889A, “3-Mercaptomethyl-2-oxo-1-pyrrolidine acetic acids and use for hypertension” (Eli Lilly and Company, priority 1983, dated 1985).

Molecular target: T1, Angiotensin Converting Enzyme (Oryctolagus cuniculus, UniProt P12822)
T1 construct: The enzyme was isolated from rabbit lung and purified via calcium phosphate gel; from tissue; host or cells: rabbit lung
T1 sequence (P12822 34-1310): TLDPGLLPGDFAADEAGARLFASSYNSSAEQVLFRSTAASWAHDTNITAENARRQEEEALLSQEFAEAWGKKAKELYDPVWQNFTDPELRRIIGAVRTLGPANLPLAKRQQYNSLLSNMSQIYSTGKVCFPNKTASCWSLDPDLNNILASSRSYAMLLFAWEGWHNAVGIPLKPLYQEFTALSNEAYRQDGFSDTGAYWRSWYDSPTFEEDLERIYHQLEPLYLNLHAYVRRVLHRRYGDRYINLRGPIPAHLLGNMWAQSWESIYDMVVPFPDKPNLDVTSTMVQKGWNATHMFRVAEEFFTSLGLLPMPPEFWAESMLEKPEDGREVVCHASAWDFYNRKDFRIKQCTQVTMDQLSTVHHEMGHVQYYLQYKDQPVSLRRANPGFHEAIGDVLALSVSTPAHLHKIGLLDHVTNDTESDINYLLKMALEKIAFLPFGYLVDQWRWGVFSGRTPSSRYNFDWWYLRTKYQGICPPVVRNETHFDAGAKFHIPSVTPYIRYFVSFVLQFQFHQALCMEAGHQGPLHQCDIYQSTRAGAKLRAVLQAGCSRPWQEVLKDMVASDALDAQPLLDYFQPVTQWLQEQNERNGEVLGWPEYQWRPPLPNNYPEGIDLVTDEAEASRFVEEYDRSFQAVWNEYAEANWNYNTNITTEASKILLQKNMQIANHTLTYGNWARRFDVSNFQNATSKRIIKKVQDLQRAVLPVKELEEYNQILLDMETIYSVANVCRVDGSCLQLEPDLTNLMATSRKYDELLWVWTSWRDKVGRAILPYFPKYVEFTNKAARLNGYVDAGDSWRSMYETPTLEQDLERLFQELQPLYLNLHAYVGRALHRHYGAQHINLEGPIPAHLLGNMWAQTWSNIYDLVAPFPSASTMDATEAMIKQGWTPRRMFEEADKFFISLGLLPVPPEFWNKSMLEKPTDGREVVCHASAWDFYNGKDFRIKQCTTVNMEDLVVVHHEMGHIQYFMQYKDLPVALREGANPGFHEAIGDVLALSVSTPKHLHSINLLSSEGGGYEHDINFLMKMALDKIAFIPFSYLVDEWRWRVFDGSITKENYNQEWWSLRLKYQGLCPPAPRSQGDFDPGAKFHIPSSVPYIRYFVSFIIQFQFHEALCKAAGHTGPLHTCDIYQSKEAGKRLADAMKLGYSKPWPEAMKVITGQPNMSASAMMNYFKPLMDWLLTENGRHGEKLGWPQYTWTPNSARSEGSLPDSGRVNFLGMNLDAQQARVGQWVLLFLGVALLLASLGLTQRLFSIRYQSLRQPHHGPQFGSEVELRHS
Assay: Inhibition of Angiotensin Converting Enzyme (fluorometric histidylleucine release from angiotensin I)
Format: biochemical
Details: enzyme from rabbit lung; human angiotensin I substrate; pH 7.5; 30 minutes at 37° C; inhibitor range 10^-4 to 10^-9 M; read-out: Concentration giving 50% Inhibition of Conversion of Angiotensin I to Angiotensin II
Description: The compounds are useful in the treatment of hypertension and congestive heart failure by virtue of their ability to inhibit angiotensin converting enzyme. […] Certain compounds of the present invention were examined as to their ability to inhibit angiotensin converting enzyme in the following test system.
ASSAY OF INHIBITORS OF ANGIOTENSIN CONVERTING ENZYME
The procedure for the assay of angiotensin I converting enzyme activity was essentially that described by Cheung and Cushman, Biochemica et Biophysica Acta, 293, 451-463 (1973). The enzyme was isolated from rabbit lung and purified via calcium phosphate gel, and DEAE-cellulose column chromatography. Human angiotensin I was employed as the substrate. The assay is dependent on the fluorometric measurement of the rate of release of the dipeptide histidylleucine from the substrate by the enzyme when the released dipeptide is reacted with o-phthalicdicarboxaldehyde. A standard curve is prepared with known quantities of histidylleucine.
Incubations were conducted at 37° C. in 13×100 mm. test tubes containing a final volume of 250 μl. The conditions of the assay employed were as follows: 100 μl. of 0.3 mM angiotensin I dissolved in saline-phosphate buffer (30 mM NaCl, 100 mM potassium phosphate, pH 7.5) and 50 μl. of saline-phosphate buffer (or test compound dissolved in the buffer) were allowed to stand at least three minutes at ambient temperature. The enzymic reaction was initiated by adding 100 μl. of enzyme solution containing 25 to 50 μg. protein/ml., determined by the Lowry method. The tubes were incubated for 30 minutes at 37° C. The reaction was terminated by adding 1.45 ml. of 300 mM NaOH followed with 100 μl. of 0.2 percent o-phthalicdicarboxaldehyde in methanol. After ten minutes, 200 μl. of 3M HCl were added. The final volume in the tubes was 2 ml. Fluorometric determinations (365 nm excitation and 500 nm emission) were made after 30 minutes but within 90 minutes after termination of the reaction.
The concentration of the inhibitors were adjusted so that a range of concentrations of 10^-4 to 10^-9 M was obtained in the reaction tubes. Inhibition was measured by the decrease in activity from that of control tubes without inhibitor. Activity was recorded as the molar concentration of inhibitor producing a 50 percent decrease in converting enzyme activity relative to the controls and is summarized in Table I.

IC50 [nM]	Structure (SMILES)
1000	C[C@@H](C(=O)O)N1CCC(C)(CS)C1=O (stereo partly drawn) [Example 1, (αS)-3-(mercaptomethyl)-α,3-dimethyl-2-oxo-1-pyrrolidineacetic acid]
2000	CCC1(CS)CCN([C@@H](C)C(=O)O)C1=O (stereo partly drawn) [Example 2, (αS)-3-ethyl-3-(mercaptomethyl)-α-methyl-2-oxo-1-pyrrolidineacetic acid]
5000	C[C@@H](C(=O)O)N1CC[C@](CS)(Cc2ccccc2)C1=O [Example 3, (αS,3R)-3-(mercaptomethyl)-α-methyl-2-oxo-3-benzyl-1-pyrrolidineacetic acid]
> 100000	C[C@@H](C(=O)O)N1CC[C@@](CS)(Cc2ccccc2)C1=O [Example 4, (S,S)-3-(mercaptomethyl)-α-methyl-2-oxo-3-benzyl-1-pyrrolidine-acetic acid]
